#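 Step 1: Grow cells in 96-well plates. Step 2: Expose to compound for 48 hours at 5 concentrations. Step 3: Interpolate endpoints linearly; if unreached, use highest concentration. At the GI50, growth is halved. Definition used: TGI = concentration required for complete inhibition of growth.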
# Columns and labels:
# Experiment in all cases: NCI-60 cell line screen, 48 h
# [1] = tested on: 786-0 renal
# [2] = tested on: A498 renal
# [3] = tested on: A549 NSCLC
# [4] = tested on: ACHN renal
# [5] = tested on: BT-549 breast
# [6] = tested on: CAKI-1 renal
# [7] = tested on: CCRF-CEM leukemia
# [8] = tested on: COLO 205 colon
# [9] = tested on: DU-145 prostate
# [10] = tested on: EKVX NSCLC
# [11] = tested on: HCC-2998 colon
# [12] = tested on: HCT-116 colon
# [13] = tested on: HCT-15 colon
# [14] = tested on: HL-60(TB) leukemia
# [15] = tested on: HOP-62 NSCLC
# [16] = tested on: HOP-92 NSCLC
# [17] = tested on: HS 578T breast
# [18] = tested on: HT29 colon
# [19] = tested on: IGROV1 ovarian
# [20] = tested on: K-562 leukemia
# [21] = tested on: KM12 colon
# [22] = tested on: LOX IMVI melanoma
# [23] = tested on: M14 melanoma
# [24] = tested on: MALME-3M melanoma
# [25] = tested on: MCF7 breast
# [26] = tested on: MDA-MB-231 breast
# [27] = tested on: MDA-MB-435
# [28] = tested on: MOLT-4 leukemia
# [29] = tested on: NCI-H226 lung
# [30] = tested on: NCI-H23 lung
# [31] = tested on: NCI-H460 lung
# [32] = tested on: NCI/ADR-RES ovarian
# [33] = tested on: OVCAR-3 ovarian
# [34] = tested on: OVCAR-4 ovarian
# [35] = tested on: OVCAR-5 ovarian
# [36] = tested on: OVCAR-8 ovarian
# [37] = tested on: PC-3 prostate
# [38] = tested on: RPMI-8226 leukemia
# [39] = tested on: RXF 393 renal
# [40] = tested on: SF-268 CNS
# [41] = tested on: SF-295 CNS
# [42] = tested on: SF-539 CNS
# [43] = tested on: SK-MEL-2 melanoma
# [44] = tested on: SK-MEL-28 melanoma
# [45] = tested on: SK-MEL-5 melanoma
# [46] = tested on: SK-OV-3 ovarian
# [47] = tested on: SN12C renal
# [48] = tested on: SNB-19 CNS
# [49] = tested on: SNB-75 CNS
# [50] = tested on: SR leukemia
# [51] = tested on: SW-620 colon
# [52] = tested on: T-47D breast
# [53] = tested on: TK-10 renal
# [54] = tested on: U251 CNS
# [55] = tested on: UACC-257 melanoma
# [56] = tested on: UACC-62 melanoma
# [57] = tested on: UO-31 renal
# [58] = tested on: NCI-H522 lung
smiles,measurement,setting,value
CC(C)(C)c1ccc(C(=O)Nc2sc3c(c2C(N)=O)CCC(O)C3)cc1 (stereo not given),GI50,[1],1.98 µM
same,TGI,[1],6.35 µM
same,GI50,[2],1.46 µM
same,TGI,[2],4.79 µM
same,GI50,[3],2.23 µM
same,TGI,[3],33 µM
same,GI50,[4],0.321 µM
same,TGI,[4],13.2 µM
same,GI50,[5],3.13 µM
same,TGI,[5],14.2 µM
same,GI50,[6],0.109 µM
same,TGI,[6],3.61 µM
same,GI50,[7],2.01 µM
same,TGI,[7],10.6 µM
same,GI50,[8],0.377 µM
same,TGI,[8],1.72 µM
same,GI50,[9],2.7 µM
same,TGI,[9],17.4 µM
same,GI50,[10],3.52 µM
same,TGI,[10],18.5 µM
same,GI50,[11],1.05 µM
same,TGI,[11],6.78 µM
same,GI50,[12],1.14 µM
same,TGI,[12],11.5 µM
same,GI50,[13],0.729 µM
same,TGI,[13],10.4 µM
same,GI50,[14],1.77 µM
same,TGI,[14],15 µM
same,GI50,[15],1.42 µM
same,TGI,[15],8.65 µM
same,GI50,[16],2.74 µM
same,TGI,[16],16.5 µM
same,GI50,[17],4.18 µM
same,TGI,[17],35.1 µM
same,GI50,[18],0.569 µM
same,TGI,[18],3.23 µM
same,GI50,[19],3.24 µM
same,TGI,[19],18.5 µM
same,GI50,[20],0.0507 µM
same,TGI,[20],1.22 µM
same,GI50,[21],0.365 µM
same,TGI,[21],3.15 µM
same,GI50,[22],0.228 µM
same,TGI,[22],1.75 µM
same,GI50,[23],0.995 µM
same,TGI,[23],4.71 µM
same,GI50,[24],4.16 µM
same,TGI,[24],17 µM
same,GI50,[25],0.753 µM
same,TGI,[25],10.5 µM
same,GI50,[26],2.17 µM
same,TGI,[26],5.32 µM
same,GI50,[27],0.422 µM
same,TGI,[27],15.6 µM
same,GI50,[28],1.65 µM
same,TGI,[28],11.5 µM
same,GI50,[29],2.96 µM
same,TGI,[29],27 µM
same,GI50,[30],4.16 µM
same,TGI,[30],22.8 µM
same,GI50,[31],0.493 µM
same,TGI,[31],10.6 µM
same,GI50,[32],2.33 µM
same,TGI,[32],31.7 µM
same,GI50,[33],3.11 µM
same,TGI,[33],13.3 µM
same,GI50,[34],0.747 µM
same,TGI,[34],17.1 µM
same,GI50,[35],3.14 µM
same,TGI,[35],17.4 µM
same,GI50,[36],2.64 µM
same,TGI,[36],87.4 µM
same,GI50,[37],2.77 µM
same,TGI,[37],16.4 µM
same,GI50,[38],2 µM
same,TGI,[38],5.42 µM
same,GI50,[39],1.77 µM
same,TGI,[39],4.93 µM
same,GI50,[40],4.39 µM
same,TGI,[40],17.9 µM
same,GI50,[41],0.582 µM
same,TGI,[41],2.54 µM
same,GI50,[42],1.39 µM
same,TGI,[42],7.19 µM
same,GI50,[43],4.46 µM
same,TGI,[43],19 µM
same,GI50,[44],2.95 µM
same,TGI,[44],15.1 µM
same,GI50,[45],0.908 µM
same,TGI,[45],3.7 µM
same,GI50,[46],3.44 µM
same,TGI,[46],19.2 µM
same,GI50,[47],6.33 µM
same,TGI,[47],22.2 µM
same,GI50,[48],8.94 µM
same,TGI,[48],21.2 µM
same,GI50,[49],3.18 µM
same,TGI,[49],15.1 µM
same,GI50,[50],0.312 µM
same,TGI,[50],4.87 µM
same,GI50,[51],0.597 µM
same,TGI,[51],11 µM
same,GI50,[52],0.625 µM
same,TGI,[52],14.8 µM
same,GI50,[53],4.37 µM
same,TGI,[53],18.4 µM
same,GI50,[54],3.95 µM
same,TGI,[54],19.6 µM
same,GI50,[55],1.27 µM
same,TGI,[55],10.1 µM
same,GI50,[56],0.333 µM
same,TGI,[56],19.9 µM
same,GI50,[57],2.03 µM
same,TGI,[57],12.8 µM
CCN(CC)CCOc1ccc(C(=C(C)c2ccc(OC)cc2)c2ccc(OCCN(CC)CC)cc2)cc1,GI50,[1],0.761 µM
same,TGI,[1],1.8 µM
same,GI50,[2],0.997 µM
same,TGI,[2],2.47 µM
same,GI50,[3],1.52 µM
same,TGI,[3],6.02 µM
same,GI50,[4],1.14 µM
same,TGI,[4],2.75 µM
same,GI50,[5],1.03 µM
same,TGI,[5],2.92 µM
same,GI50,[6],0.978 µM
same,TGI,[6],2.3 µM
same,GI50,[7],1.26 µM
same,TGI,[7],5.87 µM
same,GI50,[8],1.06 µM
same,TGI,[8],2.35 µM
same,GI50,[9],2.09 µM
same,TGI,[9],8.17 µM
same,GI50,[10],2.01 µM
same,TGI,[10],8.15 µM
same,GI50,[11],1.05 µM
same,TGI,[11],2.39 µM
same,GI50,[12],0.614 µM
same,TGI,[12],1.6 µM
same,GI50,[13],0.731 µM
same,TGI,[13],1.87 µM
same,GI50,[14],1.27 µM
same,TGI,[14],2.86 µM
same,GI50,[15],1.44 µM
same,TGI,[15],4.76 µM
same,GI50,[16],0.627 µM
same,TGI,[16],1.89 µM
same,GI50,[17],1.09 µM
same,TGI,[17],3.15 µM
same,GI50,[18],0.665 µM
same,TGI,[18],2.03 µM
same,GI50,[19],1.29 µM
same,TGI,[19],3.1 µM
same,GI50,[20],0.874 µM
same,TGI,[20],3.8 µM
same,GI50,[21],1.8 µM
same,TGI,[21],6.95 µM
same,GI50,[22],0.53 µM
same,TGI,[22],1.22 µM
same,GI50,[23],0.936 µM
same,TGI,[23],1.89 µM
same,GI50,[24],0.832 µM
same,TGI,[24],1.64 µM
same,GI50,[25],0.275 µM
same,TGI,[25],1.1 µM
same,GI50,[26],0.973 µM
same,TGI,[26],2.08 µM
same,GI50,[27],0.903 µM
same,TGI,[27],1.76 µM
same,GI50,[28],1.34 µM
same,TGI,[28],5.25 µM
same,GI50,[29],2.43 µM
same,TGI,[29],10.3 µM
same,GI50,[30],1.47 µM
same,TGI,[30],5.52 µM
same,GI50,[31],1.44 µM
same,TGI,[31],4.47 µM
same,GI50,[58],1.01 µM
same,TGI,[58],2.24 µM
same,GI50,[32],1.7 µM
same,TGI,[32],6.5 µM
same,GI50,[33],1.24 µM
same,TGI,[33],3.62 µM
same,GI50,[34],1.06 µM
same,TGI,[34],2.46 µM
same,GI50,[35],1.57 µM
same,TGI,[35],5.68 µM
same,GI50,[36],1.68 µM
same,TGI,[36],6.37 µM
same,GI50,[37],1.18 µM
same,TGI,[37],4.29 µM
same,GI50,[38],1.14 µM
same,TGI,[38],3.24 µM
same,GI50,[39],0.738 µM
same,TGI,[39],1.5 µM
same,GI50,[40],1.21 µM
same,TGI,[40],3.43 µM
same,GI50,[41],0.883 µM
same,TGI,[41],1.75 µM
same,GI50,[42],0.875 µM
same,TGI,[42],1.65 µM
same,GI50,[43],1.03 µM
same,TGI,[43],2.14 µM
same,GI50,[44],0.856 µM
same,TGI,[44],1.62 µM
same,GI50,[45],0.873 µM
same,TGI,[45],1.63 µM
same,GI50,[46],1.27 µM
same,TGI,[46],3.17 µM
same,GI50,[47],0.972 µM
same,TGI,[47],2.4 µM
same,GI50,[48],1.61 µM
same,TGI,[48],5.39 µM
same,GI50,[49],7.59 µM
same,TGI,[49],17.5 µM
same,GI50,[50],0.289 µM
same,TGI,[50],50 µM
same,GI50,[51],0.936 µM
same,TGI,[51],2.02 µM
same,GI50,[52],0.747 µM
same,TGI,[52],2.07 µM
same,GI50,[53],1.15 µM
same,TGI,[53],3.28 µM
same,GI50,[54],0.876 µM
same,TGI,[54],2 µM
same,GI50,[55],0.942 µM
same,TGI,[55],1.88 µM
same,GI50,[56],0.887 µM
same,TGI,[56],1.7 µM
same,GI50,[57],0.789 µM
same,TGI,[57],1.5 µM

# Source: PubChem BioAssay (NCI)
